For data set [1], the target named is Dual specificity tyrosine-phosphorylation-regulated kinase 1A (Homo sapiens) (UniProt Q13627). Description: Inhibition of recombinant full length human GST-fused DYRK1A expressed in Escherichia coli at 10 uM using RS peptide as substrate after 30 mins in presence of ATP by scintillation counting method relative to control.
Data set [2] relates to ZR-75-1. Briefly: Cytotoxicity against human ZR-75-1 cells by MTT assay. In kind it is functional, cell-based.
Data set [3] concerns BT-20. Briefly: Cytotoxicity against human BT20 cells by MTT assay. Format: functional, cell-based. A general note: Tetrazolium assays rely on reduction of a dye to a coloured formazan, in cell work by metabolically active cells.
In data set [4] the test system is ZR-75-1. Briefly: Growth inhibition of human ZR-75-1 cells at 100 uM by MTT assay relative to control. In kind it is functional. The settings on record: read-out: GI.
Data set [5] can be described thus: Inhibition of M-phase starfish oocytes CDK1/cyclin B using histone H1 as substrate after 30 mins in presence of ATP by scintillation counting method. Set-up: species or system Asteroidea.
For data set [6], the system named is MIA PaCa-2. Description: Growth inhibition of human MIAPaCa2 cells at 100 uM by MTT assay relative to control. As to conditions: read-out: GI. Format: functional.
Data set [7] deals with HCT-15. Description: Cytotoxicity against human HCT15 cells by MTT assay. Format: functional, cell-based.
Data set [8] concerns A549. Briefly: Growth inhibition of human A549 cells at 100 uM by MTT assay relative to control. Format: functional. The settings on record: read-out: GI.
Data set [9] concerns MDA-MB-468. Briefly: Growth inhibition of human MDA-MB-468 cells at 100 uM by MTT assay relative to control. Format: functional. As to conditions: read-out: GI.
Data set [10] concerns the target CDK2/Cyclin A2 (Homo sapiens) (UniProt P24941+P20248). Description: Inhibition of recombinant human CDK2/cyclin A at 10 uM using histone H1 as substrate after 30 mins in presence of ATP by scintillation counting method relative to control. In kind it is protein-complex assay.
For data set [11], the system named is MDA-MB-468. Description: Cytotoxicity against human MDA-MB-468 cells by MTT assay. In kind it is functional, cell-based.
In data set [12] the target is CDK9/cyclin T1 (Homo sapiens) (UniProt O60563+P50750). Briefly: Inhibition of recombinant human CDK9/cyclin T expressed in insect cells at 10 uM using YSPTSPSYSPTSPSYSPTSPSKKKK as substrate after 30 mins in presence of ATP by scintillation counting method relative to control.
For data set [13], the system named is MDA-MB-231. Description: Cytotoxicity against human MDA-MB-231 cells by MTT assay. In kind it is functional, cell-based.
Data set [14] has as its system MCF7. Description: Growth inhibition of human MCF7 cells at 100 uM by MTT assay relative to control. Format: functional. As to conditions: read-out: GI.
Data set [15] relates to ZR-75-30. Briefly: Cytotoxicity against human ZR-7530 cells by MTT assay. In kind it is functional, cell-based.
A short description of data set [16]: Inhibition of porcine brain CK1-delta/epsilon using CSK peptide as substrate after 30 mins in presence of ATP by scintillation counting method. Set-up: species or system Sus scrofa.
Data set [17] relates to ZR-75-30. Description: Growth inhibition of human ZR-7530 cells at 100 uM by MTT assay relative to control. The settings on record: read-out: GI. Format: functional.
For the next data set, the system named is DU-145. Briefly: Growth inhibition of human DU145 cells at 100 uM by MTT assay relative to control. As to conditions: read-out: GI. Format: functional.
Data set [18] has as its target Dual specificity protein kinase CLK1 (Mus musculus) (UniProt P22518). Description: Inhibition of recombinant mouse GST-fused CLK1 expressed in Escherichia coli at 10 uM using RS peptide as substrate after 30 mins in presence of ATP by scintillation counting method relative to control.
Data set [19] concerns PANC-1. Description: Growth inhibition of human PANC1 cells at 100 uM by MTT assay relative to control. Format: functional. The settings on record: read-out: GI.
The target of data set [20] is Glycogen synthase kinase-3 (Sus scrofa, UniProt B2LUN4+I6LNT8). Description: Inhibition of porcine brain GSK-3 alpha/beta using YRRAAVPPSPSLSRHSSPHQpSEDEEE as substrate after 30 mins in presence of ATP by scintillation counting method.
The target of data set [21] is Dual specificity protein kinase CLK1 (Mus musculus, UniProt P22518). Description: Inhibition of recombinant mouse GST-fused CLK1 expressed in Escherichia coli using RS peptide as substrate after 30 mins in presence of ATP by scintillation counting method.
Sequence of Dual specificity protein kinase CLK1 (P22518 whole entry, the tested form may be a part): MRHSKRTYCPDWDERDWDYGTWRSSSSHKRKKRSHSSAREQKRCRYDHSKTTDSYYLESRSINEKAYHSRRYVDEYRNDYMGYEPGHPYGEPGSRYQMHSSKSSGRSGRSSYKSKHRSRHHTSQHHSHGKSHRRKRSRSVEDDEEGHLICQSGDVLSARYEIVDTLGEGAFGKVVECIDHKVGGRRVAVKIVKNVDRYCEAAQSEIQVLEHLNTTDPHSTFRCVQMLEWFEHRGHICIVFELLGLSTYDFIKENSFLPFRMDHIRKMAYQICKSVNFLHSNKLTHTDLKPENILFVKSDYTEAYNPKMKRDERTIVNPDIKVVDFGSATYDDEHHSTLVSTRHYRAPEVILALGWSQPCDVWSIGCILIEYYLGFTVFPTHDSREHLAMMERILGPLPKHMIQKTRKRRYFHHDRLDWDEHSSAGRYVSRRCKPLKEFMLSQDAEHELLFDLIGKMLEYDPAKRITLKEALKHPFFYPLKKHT
The next data set deals with CDK2/Cyclin A2 (Homo sapiens, UniProt P24941). Briefly: Inhibition of recombinant human CDK2/cyclin A using histone H1 as substrate after 30 mins in presence of ATP by scintillation counting method. Format: protein-complex assay.
In data set [22] the target is Glycogen synthase kinase-3 (Sus scrofa) (UniProt B2LUN4+I6LNT8). Briefly: Inhibition of porcine brain GSK-3 alpha/beta at 10 uM using YRRAAVPPSPSLSRHSSPHQpSEDEEE as substrate after 30 mins in presence of ATP by scintillation counting method relative to control.
For data set [23], the system named is HCT-15. Briefly: Growth inhibition of human HCT15 cells at 100 uM by MTT assay relative to control. Format: functional. As to conditions: read-out: GI.
In data set [24] the test system is MIA PaCa-2. Description: Cytotoxicity against human MIAPaCa2 cells by MTT assay. In kind it is functional, cell-based.
The target in data set [25] is Cyclin-dependent kinase 5/CDK5 activator 1 (Homo sapiens) (UniProt Q00535+Q15078). Briefly: Inhibition of recombinant human CDK5/p25 expressed in Escherichia coli at 10 uM using histone H1 as substrate after 30 mins in presence of ATP by scintillation counting method relative to control.
Sequence of Cyclin-dependent kinase 5/CDK5 activator 1 (Homo sapiens) (Q00535 whole entry): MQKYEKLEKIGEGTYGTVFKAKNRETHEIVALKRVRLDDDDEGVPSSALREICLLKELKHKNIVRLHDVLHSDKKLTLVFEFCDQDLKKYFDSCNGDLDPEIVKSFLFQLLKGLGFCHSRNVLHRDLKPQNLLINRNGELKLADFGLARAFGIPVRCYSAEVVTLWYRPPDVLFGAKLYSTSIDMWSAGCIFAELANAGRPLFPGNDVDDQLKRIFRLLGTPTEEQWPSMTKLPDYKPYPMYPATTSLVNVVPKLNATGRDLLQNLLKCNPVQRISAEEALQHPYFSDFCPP
Sequence of Cyclin-dependent kinase 5/CDK5 activator 1 (Homo sapiens) (Q15078 99-307 partner limits assumed): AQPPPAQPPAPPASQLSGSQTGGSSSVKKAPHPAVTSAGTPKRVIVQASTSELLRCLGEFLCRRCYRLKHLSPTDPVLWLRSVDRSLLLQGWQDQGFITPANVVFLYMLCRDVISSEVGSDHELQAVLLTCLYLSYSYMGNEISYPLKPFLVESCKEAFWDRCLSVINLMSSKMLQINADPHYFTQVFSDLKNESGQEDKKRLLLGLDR
Data set [26] has as its system PANC-1. Briefly: Cytotoxicity against human PANC1 cells by MTT assay. Format: functional, cell-based.
For data set [27], the system named is A549. Description: Cytotoxicity against human A549 cells by MTT assay. Format: functional, cell-based.
The test system of another data set is HEK293. Briefly: Cytotoxicity against HEK293 cells by MTT assay. In kind it is cell-based. The settings on record: Homo sapiens.
Data set [28] relates to BT-20. Description: Growth inhibition of human BT20 cells at 100 uM by MTT assay relative to control. Format: functional. As to conditions: read-out: GI.
The subject of data set [29] is MCF7. Description: Cytotoxicity against human MCF7 cells by MTT assay. Format: functional, cell-based.
Data set [30] can be described thus: Growth inhibition of HEK293 cells at 100 uM by MTT assay relative to control. Format: cell-based. As to conditions: human, read-out: GI.
The species named for a further data set is Sus scrofa. Briefly: Inhibition of porcine brain CK1-delta/epsilon at 10 uM using CSK peptide as substrate after 30 mins in presence of ATP by scintillation counting method relative to control.
Another data set has as its system Asteroidea. Description: Inhibition of M-phase starfish oocytes CDK1/cyclin B at 10 uM using histone H1 as substrate after 30 mins in presence of ATP by scintillation counting method relative to control.
Data set [31] deals with MDA-MB-231. Description: Growth inhibition of human MDA-MB-231 cells at 100 uM by MTT assay relative to control. Format: functional. As to conditions: read-out: GI.

Sequence of Dual specificity protein kinase CLK1 (Mus musculus) (P22518 whole entry, looked up, the tested form may be a part): as the sequence (P22518 whole entry, the tested form may be a part) above

For the compound `COc1cc2ncnc(Nc3cc(-c4ccccc4)[nH]n3)c2cc1OC`, the inhibition in [1], in [10], in [12], in [18], in data set [22] and in data set [25] was above 50% in each case. The inhibition in the data set filed under Sus scrofa and in the data set with Asteroidea was above 50% in each case. The IC50 with ZR-75-1 [2] is above 100 µM; in the data set with BT-20 [3] it was above 100 µM; in [5], above 10 µM; in the data set on HCT-15 [7], above 100 µM; in the data set with MDA-MB-468 [11] it was above 100 µM; in the data set with MDA-MB-231 [13] it was above 100 µM. Further, the IC50 was above 100 µM in the data set with ZR-75-30 [15]; 1.6 µM in [16]; above 10 µM in [20]; above 10 µM in data set [21]; above 10 µM at CDK2/Cyclin A2; above 100 µM with MIA PaCa-2 [24]. The IC50 with PANC-1 [26] was 9.3 µM; with A549 [27], 29.7 µM; with HEK293, 71.1 µM; with MCF7 [29], above 100 µM. For the same compound, the inhibition of growth at 100 µM in the data set on ZR-75-1 [4], with MIA PaCa-2 [6], in the data set on A549 [8], with MDA-MB-468 [9], in the data set on MCF7 [14] and in the data set on ZR-75-30 [17] was above 50% each time. Moreover, the inhibition of growth at 100 µM in the data set with DU-145, with PANC-1 [19], with HCT-15 [23], in the data set on BT-20 [28] and in the data set on MDA-MB-231 [31] was above 50% in each case. Moreover, the inhibition at 100 µM in [30] is above 50%.
In the case of `COc1ccc2c(c1)[nH]c1c(C)nccc12` [HARMINE], the half-maximal inhibitory concentration (IC50) (in data set [5]; in [20]; on CDK2/Cyclin A2) was above 10 µM in each case.

In general, IC50 refers to the concentration needed to halve the response being measured.

(Values after ChEMBL document CHEMBL4020763, “N-(1H-Pyrazol-3-yl)quinazolin-4-amines as a novel class of casein kinase 1δ/ε inhibitors: Synthesis, biological evaluation and molecular modeling studies” (Bioorg Med Chem Lett, 2017).)
